Experiments:
barnyardgrass [1] = assay: Test A pre-/postemergence herbicide test; assay type: in vivo, Echinochloa crus-galli
Summary of the method: (§1)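 Plants are held in greenhouse about ten days after treatment, then compared with untreated controls and scored 0 (no effect) to 100 (complete control). Preemergence dosing is a directed soil spray on sown sandy loam; postemergence dosing is spray to runoff at 2–10 cm height.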

large crabgrass [2] = assay: Test A pre-/postemergence herbicide test; assay type: in vivo, Digitaria sanguinalis
Summary of the method: as §1

giant foxtail [3] = assay: Test A pre-/postemergence herbicide test; assay type: in vivo, Setaria faberi
Summary of the method: as §1

morningglory [4] = assay: Test A pre-/postemergence herbicide test; assay type: in vivo, Ipomoea spp.
Summary of the method: as §1

redroot pigweed = assay: Test A pre-/postemergence herbicide test; assay type: in vivo, Amaranthus retroflexus
Summary of the method: as §1

velvetleaf [5] = assay: Test A pre-/postemergence herbicide test; assay type: in vivo, Abutilon theophrasti
Summary of the method: as §1

barnyardgrass [6] = assay: Test B pre-/postemergence herbicide test; assay type: in vivo, Echinochloa crus-galli; details: for Barnyardgrass plant response rating: postemergence
Summary of the method: (§2)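 Flooded paddy rice and barnyardgrass were treated at the 2-leaf stage; upland plantings received compound either on sown seed or on 1- to 4-leaf seedlings. All were kept 13–15 days in a greenhouse and scored visually, 0–100, relative to untreated plants.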

Surinam grass = assay: Test B pre-/postemergence herbicide test; assay type: in vivo, Urochloa decumbens; details: for Surinam Grass plant response rating: postemergence
Summary of the method: (§3)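 Evaluation is visual, comparing treated with control plants on a scale where 0 means no effect and 100 means full control. Treatments were preemergence, or postemergence on seedlings 2–18 cm tall, and held 13–15 days in the greenhouse.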

cocklebur = assay: Test B pre-/postemergence herbicide test; assay type: in vivo, Xanthium strumarium; details: for Cocklebur plant response rating: postemergence
Summary of the method: as §2

corn = assay: Test B pre-/postemergence herbicide test; assay type: in vivo, Zea mays; details: for Corn plant response rating: postemergence
Summary of the method: as §3

large crabgrass [7] = assay: Test B pre-/postemergence herbicide test; assay type: in vivo, Digitaria sanguinalis; details: for Crabgrass, Large plant response rating: postemergence
Summary of the method: as §3

giant foxtail [8] = assay: Test B pre-/postemergence herbicide test; assay type: in vivo, Setaria faberi; details: for Foxtail, Giant plant response rating: postemergence
Summary of the method: as §3

lambsquarters = assay: Test B pre-/postemergence herbicide test; assay type: in vivo, Chenopodium album; details: for Lambsquarters plant response rating: postemergence
Summary of the method: as §3

morningglory [9] = assay: Test B pre-/postemergence herbicide test; assay type: in vivo, Ipomoea coccinea; details: for Morningglory plant response rating: postemergence
Summary of the method: as §2

pigweed = assay: Test B pre-/postemergence herbicide test; assay type: in vivo, Amaranthus retroflexus; details: for Pigweed plant response rating: postemergence
Summary of the method: as §3

rice [10] = assay: Test B pre-/postemergence herbicide test; assay type: in vivo, Oryza sativa; details: 0 = no effect, 100 = complete control, preemergence
Summary of the method: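 Plants compared with untreated controls 13–15 days post-treatment and given a visual 0–100 injury score. Applications: preemergence to seeds; postemergence at 1- to 4-leaf (2–18 cm); paddy species flooded, 2-leaf stage. Vehicle non-phytotoxic, surfactant included.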

velvetleaf [11] = assay: Test B pre-/postemergence herbicide test; assay type: in vivo, Abutilon theophrasti; details: for Velvetleaf plant response rating: postemergence
Summary of the method: as §3

blackgrass = assay: Test B postemergence herbicide test; assay type: in vivo, Alopecurus myosuroides; details: postemergence
Summary of the method: (§4)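 After treating 2-leaf paddy plants or 2–18 cm postemergence plants (1 to 4 leaves) with formulated chemical, researchers kept them in a greenhouse for 13–15 days. Effects were judged visually versus controls: 0 indicates none, 100 total control.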

wheat = assay: Test B postemergence herbicide test; assay type: in vivo, Triticum aestivum; parameters: key to Wheat plant response rating: 0 = no effect, 100 = complete control; details: postemergence
Summary of the method: (§5)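 Treated at 2-leaf (paddy) or 1–4-leaf, 2–18 cm (postemergence); greenhouse 13–15 d; visual score vs control, 0 none to 100 complete control; dash = not tested.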

wild oat = assay: Test B postemergence herbicide test; assay type: in vivo, Avena fatua; details: postemergence
Summary of the method: as §5

rice [12] = assay: Test B flooded paddy test; assay type: in vivo, Oryza sativa; details: 1000 g ai/ha, scale 0 to 100 (0 no effect, 100 complete control)
Summary of the method: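 Each value is a visual 0–100 response rating taken against controls 13 to 15 days after treatment in the greenhouse. Plants received formulated chemical postemergence at the 1- to 4-leaf stage or, in flooded paddy, at the 2-leaf stage.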

[13] = tested on: small flower umbrella sedge; assay: Test B flooded paddy test; assay type: in vivo, Cyperus difformis; details: 1000 g ai/ha, scale 0 to 100 (0 no effect, 100 complete control)
Summary of the method: as §4

ducksalad = assay: Test B flooded paddy test; assay type: in vivo, Heteranthera limosa; details: 1000 g ai/ha, scale 0 to 100 (0 no effect, 100 complete control)
Summary of the method: as §4

barnyardgrass [14] = assay: Test B flooded paddy test; assay type: in vivo, Echinochloa crus-galli; details: 1000 g ai/ha, scale 0 to 100 (0 no effect, 100 complete control)
Summary of the method: as §4

[15] = Postemergence, 500 g ai/ha, 0 to 100 scale, 0 no effect, 100 complete control
[16] = Postemergence, 2000 g ai/ha, 0 to 100 scale, 0 no effect, 100 complete control
[17] = Preemergence, 2000 g ai/ha, visual rating, 0 to 100 scale (0 no effect, 100 complete control)
[18] = preemergence, 500 g ai/ha, visual injury, 0 to 100 scale (0 no effect, 100 complete control)
[19] = 125 g ai/ha, 0 = no effect, 100 = complete control, preemergence
[20] = 125 g ai/ha, visual rating, scale 0 (no effect) to 100 (complete control)
[21] = 500 g ai/ha, visual rating, 0 = no effect, 100 = complete control, preemergence
[22] = 500 g ai/ha, scale 0 to 100, 0 is no effect, 100 is complete control

CCNC(=O)c1cncc(NC(=O)c2cc(C(C)(C)C)nn2CC)n1 [Compound 288]
Barnyardgrass plant response rating (barnyardgrass [1]; [15]): 5
Plant response rating, Barnyardgrass (barnyardgrass [1]; [16]): 65
Barnyardgrass plant response rating (barnyardgrass [1]; [17]): 75
Barnyardgrass plant response rating (barnyardgrass [1]; [18]): 20
Crabgrass, Large plant response rating (large crabgrass [2]; [15]): 0
Plant response rating, Crabgrass, Large (large crabgrass [2]; [16]): 15
Crabgrass, Large plant response rating (large crabgrass [2]; [17]): 10
Crabgrass, Large plant response rating (large crabgrass [2]; [18]): 0
Foxtail, Giant plant response rating (giant foxtail [3]; [15]): 0
Plant response rating, Foxtail, Giant (giant foxtail [3]; [16]): 10
Foxtail, Giant plant response rating (giant foxtail [3]; [17]): 75
Foxtail, Giant plant response rating (giant foxtail [3]; [18]): 15
Morningglory plant response rating (morningglory [4]; [15]): 20
Plant response rating, Morningglory (morningglory [4]; [16]): 20
Morningglory plant response rating (morningglory [4]; [17]): 30
Morningglory plant response rating (morningglory [4]; [18]): 5
Pigweed plant response rating (redroot pigweed; [15]): 20
Plant response rating, Pigweed (redroot pigweed; [16]): 40
Pigweed plant response rating (redroot pigweed; [17]): 70
Pigweed plant response rating (redroot pigweed; [18]): 25
Velvetleaf plant response rating (velvetleaf [5]; [15]): 20
Plant response rating, Velvetleaf (velvetleaf [5]; [16]): 20
Velvetleaf plant response rating (velvetleaf [5]; [17]): 40
Velvetleaf plant response rating (velvetleaf [5]; [18]): 10
Barnyardgrass plant response rating (0 to 100 scale) (barnyardgrass [6]; [19]): 0
Barnyardgrass plant response rating (barnyardgrass [6]; [20]): 0
Plant response rating, Barnyardgrass (barnyardgrass [6]; [21]): 70
Barnyardgrass plant response rating (barnyardgrass [6]; [22]): 0
Surinam Grass plant response rating (0 to 100 scale) (Surinam grass; [19]): 0
Surinam Grass plant response rating (Surinam grass; [20]): 0
Plant response rating, Surinam Grass (Surinam grass; [21]): 0
Surinam Grass plant response rating (Surinam grass; [22]): 0
Cocklebur plant response rating (0 to 100 scale) (cocklebur; [19]): 0
Cocklebur plant response rating (cocklebur; [20]): 0
Plant response rating, Cocklebur (cocklebur; [21]): 0
Cocklebur plant response rating (cocklebur; [22]): 0
Corn plant response rating (0 to 100 scale) (corn; [19]): 0
Corn plant response rating (corn; [20]): 0
Plant response rating, Corn (corn; [21]): 0
Corn plant response rating (corn; [22]): 0
Crabgrass, Large plant response rating (0 to 100 scale) (large crabgrass [7]; [19]): 0
Crabgrass, Large plant response rating (large crabgrass [7]; [20]): 0
Plant response rating, Crabgrass, Large (large crabgrass [7]; [21]): 0
Crabgrass, Large plant response rating (large crabgrass [7]; [22]): 0
Foxtail, Giant plant response rating (0 to 100 scale) (giant foxtail [8]; [19]): 0
Foxtail, Giant plant response rating (giant foxtail [8]; [20]): 0
Plant response rating, Foxtail, Giant (giant foxtail [8]; [21]): 10
Foxtail, Giant plant response rating (giant foxtail [8]; [22]): 30
Lambsquarters plant response rating (0 to 100 scale) (lambsquarters; [19]): 0
Lambsquarters plant response rating (lambsquarters; [20]): 0
Plant response rating, Lambsquarters (lambsquarters; [21]): 90
Lambsquarters plant response rating (lambsquarters; [22]): 30
Morningglory plant response rating (0 to 100 scale) (morningglory [9]; [19]): 0
Morningglory plant response rating (morningglory [9]; [20]): 0
Plant response rating, Morningglory (morningglory [9]; [21]): 0
Morningglory plant response rating (morningglory [9]; [22]): 0
Pigweed plant response rating (0 to 100 scale) (pigweed; [19]): 0
Pigweed plant response rating (pigweed; [20]): 10
Plant response rating, Pigweed (pigweed; [21]): 90
Pigweed plant response rating (pigweed; [22]): 20
Rice plant response rating (0 to 100 scale) (rice [10]; 125 g ai/ha): 0
Plant response rating, Rice (rice [10]; 500 g ai/ha, visual rating): 70
Velvetleaf plant response rating (velvetleaf [11]; [20]): 10
Plant response rating, Velvetleaf (velvetleaf [11]; [21]): 0
Velvetleaf plant response rating (velvetleaf [11]; [22]): 20
Blackgrass plant response rating (blackgrass; [20]): 20
Blackgrass plant response rating (blackgrass; [22]): 20
Wheat plant response rating (wheat; [20]): 20
Wheat plant response rating (wheat; [22]): 30
Oat, Wild plant response rating (wild oat; [20]): 20
Oat, Wild plant response rating (wild oat; [22]): 40
Rice plant response rating (rice [12]): 0
Sedge, Umbrella plant response rating [13]: 60
Ducksalad plant response rating (ducksalad): 0
Barnyardgrass plant response rating (barnyardgrass [14]): 0

— patent US20060069132A1, “Azolecarboxamide herbicides” (priority 2004, published 2006)
